ChEMBL document CHEMBL5316325, “Design and Synthesis of 3-Hydroxy-pyridin-4(1H)-ones-Ciprofloxacin Conjugates as Dual Antibacterial and Antibiofilm Agents against Pseudomonas aeruginosa” (J Med Chem, 2023)
In brackets after ≈: the same amount, converted by molar mass. Activity calls are given as the source filed them. The calls are words filed in the database; no cut-off is given here.

Legend:
Pseudomonas aeruginosa [1] = test: Antibacterial activity against Pseudomonas aeruginosa PAO1 assessed as decrease in bacterial load at MIC measured for 12 hrs by absorbance based assay; assay type: functional, organism-based
[2] = Toxicity in Caenorhabditis elegans assessed as survival rate at 50 to 100 uM measured after 48 hrs by bright field microscopy; conditions: dose 50-100 µM
Pseudomonas aeruginosa [3] = test: Antibiofilm activity against Pseudomonas aeruginosa PAO1 assessed as biofilm eradication at high concentration incubated for 36 hrs by crystal violet staining based assay; assay type: functional, organism-based
[4] = Toxicity in Caenorhabditis elegans infected with Pseudomonas aeruginosa PAO1 assessed as survival at MIC measured after 48 hrs by bright field microscopy relative to control; conditions: read-out: Activity
Pseudomonas aeruginosa [5] = test: Antibiofilm activity against Pseudomonas aeruginosa PAO1 in ABTGC medium assessed as biofilm biomass at MIC incubated for 24 hrs by crystal violet staining based assay relative to control; assay type: functional
Pseudomonas aeruginosa [6] = test: Antibacterial activity against Pseudomonas aeruginosa PAO1 assessed as reduction in bacterial viability at MIC measured after 8 hrs by time killing analysis; assay type: functional, organism-based
Pseudomonas aeruginosa [7] = test: Antibiofilm activity against Pseudomonas aeruginosa PAO1 in ABTGC medium assessed as biofilm biomass at 1/4 times MIC incubated for 24 hrs in presence of 10 uM Fe by crystal violet staining based assay relative to control; assay type: functional
Pseudomonas aeruginosa [8] = test: Antibiofilm activity against Pseudomonas aeruginosa PAO1 in ABTGC medium assessed as biofilm biomass at 1/2 times MIC incubated for 24 hrs by crystal violet staining based assay relative to control; assay type: functional
Pseudomonas aeruginosa [9] = test: Antibiofilm activity against Pseudomonas aeruginosa PAO1 in ABTGC medium assessed as biofilm biomass at 1/2 times MIC incubated for 24 hrs in presence of 40 uM Fe by crystal violet staining based assay relative to control; assay type: functional
Pseudomonas aeruginosa [10] = test: Antibacterial activity against Pseudomonas aeruginosa PAO1 in MHB medium assessed as bacterial growth inhibition by CLSI based broth microdilution method; assay type: functional
Pseudomonas aeruginosa [11] = test: Antibiofilm activity against Pseudomonas aeruginosa PAO1 in ABTGC medium assessed as biofilm biomass at 1/4 times MIC incubated for 24 hrs in presence of 40 uM Fe by crystal violet staining based assay relative to control; assay type: functional
Pseudomonas aeruginosa [12] = test: Antibiofilm activity against Pseudomonas aeruginosa PAO1 assessed as reduction in twitching motility at 3.44 uM incubated for 16 hrs relative to control; assay type: functional; parameters: scale not given: the % may be the effect or the level left
Pseudomonas aeruginosa [13] = test: Antibiofilm activity against Pseudomonas aeruginosa PAO1 assessed as reduction in swarming motility at 3.44 uM incubated for 16 hrs relative to control; assay type: functional; parameters: scale not given: the % may be the effect or the level left
Pseudomonas aeruginosa [14] = test: Antibacterial activity against Pseudomonas aeruginosa PAO1 assessed as reduction in bacterial CFU count at 8 times MIC measured after 4 hrs by time killing analysis; assay type: functional, organism-based
Staphylococcus aureus [15] = test: Antibacterial activity against methicillin-resistant Staphylococcus aureus ATCC 515992 in MHB medium assessed as bacterial growth inhibition by CLSI based broth microdilution method; assay type: functional
Pseudomonas aeruginosa [16] = test: Antibiofilm activity against Pseudomonas aeruginosa PAO1 assessed as decrease in pyocyanin level at 3.44 uM by absorbance based assay relative to control; assay type: functional; parameters: scale not given: the % may be the effect or the level left
Pseudomonas aeruginosa [17] = test: Antibacterial activity against Pseudomonas aeruginosa 1121 in MHB medium assessed as bacterial growth inhibition by CLSI based broth microdilution method; assay type: functional
Pseudomonas aeruginosa [18] = test: Antibacterial activity against Pseudomonas aeruginosa 1167 in MHB medium assessed as bacterial growth inhibition by CLSI based broth microdilution method; assay type: functional
Pseudomonas aeruginosa [19] = test: Antibacterial activity against Pseudomonas aeruginosa ATCC 27853 in MHB medium assessed as bacterial growth inhibition by CLSI based broth microdilution method; assay type: functional
Pseudomonas aeruginosa [20] = test: Antibiofilm activity against Pseudomonas aeruginosa PAO1 assessed as decrease in rhamnolipid level at 3.44 uM by absorbance based assay relative to control; assay type: functional; parameters: scale not given: the % may be the effect or the level left
Pseudomonas aeruginosa [21] = test: Antibiofilm activity against Pseudomonas aeruginosa PAO1 assessed as decrease in rhamnolipid level by absorbance based assay; assay type: functional, organism-based; conditions: dose 1.72-6.88 µM
Staphylococcus aureus [22] = test: Antibacterial activity against Staphylococcus aureus ATCC 25923 in MHB medium assessed as bacterial growth inhibition by CLSI based broth microdilution method; assay type: functional
Pseudomonas aeruginosa [23] = test: Antibiofilm activity against Pseudomonas aeruginosa PAO1 in ABTGC medium assessed as biofilm biomass at MIC incubated for 24 hrs in presence of 10 uM Fe by crystal violet staining based assay relative to control; assay type: functional
Pseudomonas aeruginosa [24] = test: Antibiofilm activity against Pseudomonas aeruginosa PAO1 in ABTGC medium assessed as biofilm biomass at 1/4 times MIC incubated for 24 hrs by crystal violet staining based assay relative to control; assay type: functional
Pseudomonas aeruginosa [25] = test: Antibiofilm activity against Pseudomonas aeruginosa PAO1 in ABTGC medium assessed as biofilm biomass at 1/2 times MIC incubated for 24 hrs in presence of 10 uM Fe by crystal violet staining based assay relative to control; assay type: functional
Pseudomonas aeruginosa [26] = test: Antibacterial activity against Pseudomonas aeruginosa PAO1 assessed as log reduction in CFU/ml at 8 times MIC measured after 2 hrs by time killing analysis; assay type: functional
Pseudomonas aeruginosa [27] = test: Antibacterial activity against Pseudomonas aeruginosa PAO1 in ABTGC medium assessed as bacterial growth inhibition; assay type: functional
Pseudomonas aeruginosa [28] = test: Antibiofilm activity against Pseudomonas aeruginosa PAO1 assessed as reduction in swimming motility at 3.44 uM incubated for 16 hrs relative to control; assay type: functional; parameters: scale not given: the % may be the effect or the level left
HEK293 = test: Cytotoxicity against HEK293 cells upto 100 uM incubated for 48 hrs by MTT assay; assay type: toxicity, cell-based; conditions: human, hek293, 48 h
Pseudomonas aeruginosa [29] = test: Antibiofilm activity against Pseudomonas aeruginosa PAO1 in ABTGC medium assessed as biofilm biomass at MIC incubated for 24 hrs in presence of 40 uM Fe by crystal violet staining based assay relative to control; assay type: functional
Pseudomonas aeruginosa [30] = test: Antibiofilm activity against Pseudomonas aeruginosa PAO1 assessed as decrease in pyocyanin level by absorbance based assay; assay type: functional, organism-based; conditions: dose 1.72-6.88 µM
Escherichia coli = test: Antibacterial activity against Escherichia coli ATCC 25922 in MHB medium assessed as bacterial growth inhibition by CLSI based broth microdilution method; assay type: functional
A549 = test: Cytotoxicity against human A549 cells upto 100 uM incubated for 16 hrs by MTT assay; assay type: toxicity, cell-based; conditions: a549, 16 h
Pseudomonas aeruginosa [31] = test: Antibacterial activity against Pseudomonas aeruginosa FB in MHB medium assessed as bacterial growth inhibition by CLSI based broth microdilution method; assay type: functional
Klebsiella pneumoniae = test: Antibacterial activity against Klebsiella pneumoniae ATCC 700603 in MHB medium assessed as bacterial growth inhibition by CLSI based broth microdilution method; assay type: functional
Pseudomonas aeruginosa [32] = test: Antibiofilm activity against Pseudomonas aeruginosa PAO1 assessed as biofilm eradication at 4 times MIC incubated for 24 hrs by crystal violet staining based assay relative to control; assay type: functional
Pseudomonas aeruginosa [33] = test: Antibacterial activity against Pseudomonas aeruginosa PAO1 assessed as reduction in bacterial viability at 8 times MIC measured after 4 hrs by time killing analysis; assay type: functional, organism-based
Pseudomonas aeruginosa [34] = test: Antibacterial activity against Pseudomonas aeruginosa 1129 in MHB medium assessed as bacterial growth inhibition by CLSI based broth microdilution method; assay type: functional

Cc1cc(=O)c(O)c(CNC(=O)CCC(=O)N2CCN(c3cc4c(cc3F)c(=O)c(C(=O)O)cn4C3CC3)CC2)n1C
Activity (Pseudomonas aeruginosa [1]): Active | Activity [2]: Non-Toxic | Activity (Pseudomonas aeruginosa [3]): Active | survival at 48 h [4]: 50% | Activity (Pseudomonas aeruginosa [5]): 39% | Activity (Pseudomonas aeruginosa [6]): Active | Activity (Pseudomonas aeruginosa [7]): 21.7% | Activity (Pseudomonas aeruginosa [8]): 111.5% | Activity (Pseudomonas aeruginosa [9]): 223.4% | MIC (Pseudomonas aeruginosa [10]): 0.43 µM (≈ 0.25 µg/mL) | Activity (Pseudomonas aeruginosa [11]): 205.2% | Activity (Pseudomonas aeruginosa [12]): 63% | Activity (Pseudomonas aeruginosa [13]): 30% | Activity (Pseudomonas aeruginosa [14]): Active | MIC (Staphylococcus aureus [15]): > 200 µM | Activity (Pseudomonas aeruginosa [16]): 40% | MIC (Pseudomonas aeruginosa [17]): 1.72 µM (≈ 1 µg/mL) | MIC (Pseudomonas aeruginosa [18]): 0.86 µM (≈ 0.5 µg/mL) | MIC (Pseudomonas aeruginosa [19]): 0.86 µM (≈ 0.5 µg/mL) | Activity (Pseudomonas aeruginosa [20]): 20% | Activity (Pseudomonas aeruginosa [21]): Dose-Dependent Effect | MIC (Staphylococcus aureus [22]): 3.44 µM (≈ 2 µg/mL) | Activity (Pseudomonas aeruginosa [23]): 39% | Activity (Pseudomonas aeruginosa [24]): 21.7% | Activity (Pseudomonas aeruginosa [25]): 111.5% | FC (Pseudomonas aeruginosa [26]): 2 | MIC (Pseudomonas aeruginosa [27]): 6.88 µM (≈ 4 µg/mL) | Activity (Pseudomonas aeruginosa [28]): 63% | Activity (HEK293): Non-Toxic | Activity (Pseudomonas aeruginosa [29]): 211% | Activity (Pseudomonas aeruginosa [30]): Dose-Dependent Effect | MIC (Escherichia coli): 0.03 µM (≈ 0.0174 µg/mL) | Activity (A549): Non-Toxic | MIC (Pseudomonas aeruginosa [31]): 1.72 µM (≈ 1 µg/mL) | MIC (Klebsiella pneumoniae): 1.72 µM (≈ 1 µg/mL) | Activity (Pseudomonas aeruginosa [32]): 74.2% | Activity (Pseudomonas aeruginosa [33]): Active | MIC (Pseudomonas aeruginosa [34]): 3.44 µM (≈ 2 µg/mL)
